Source: patent US20090252786A1, “Use of a Biologically Active Blood Serum for the Treatment of a Disorder Characterized in a Reduced Function of a GABA Receptor” (priority 2008, published 2009)
Values joined by “and” are separate entries in the source; they are usually repeats but may differ in a detail not shown here. Equal values may be shown once.

How the values were obtained:
[1] = system: pyramidal cell layer of CA1, hippocampus slices; assay: hippocampus slice, provocation with bicuculline; set-up: species or system rat; details: bicuculline 50 μM alone, mean of 4 slices, one mean per series
Description: (§1) Hippocampus slices were obtained from 11 adult male Sprague-Dawlay rats (Charles River Wiga, Sulzbach, Germany). Rats were kept under a reversed day-night cycle for 2 weeks prior start of the experiments, to allow recording of in-vitro activity from slices during the active phase of their circadian rhythm (Dimpfel et al., 1994, Dimpfel et al., 1995). Animals were exsanguinated under ether anaesthesia, the brain was removed in total and the hippocampal formation was isolated under microstereoscopic sight. The midsection of the hippocampus was fixed to the table of a vibrating microtome (Rhema Labortechnik, Hofheim, Germany) using a cyanoacrylate adhesive, submerged in chilled bicarbonate-buffered saline (artificial cerebro spinal fluid (ACSF) NaCl: 124 mM; KCl: 5 mM; CaCl2: 2 mM; MgSO4: 2 mM; NaHCO3: 26 mM; and glucose: 10 mM), and cut into slices of 400 μm thickness. All slices were preincubated for at least 1 h in carbogen ([…])-saturated ACSF (pH 7.4) in a prechamber before use (see also Dimpfel et al., 1991).
During the experiment the slices were held and treated in a special Superfusion chamber (List Electronics, Darmstadt, Germany) at 35° C. according to Haas et al., 1979 (see also: Schiff and Somjen, 1985). Four slices were used from one rat per day under one of the test conditions (control or various concentrations of the S1 compound). […]

[2] = system: pyramidal cell layer of CA1, hippocampus slices; assay: hippocampus slice, provocation with pentylenetetrazol; set-up: species or system rat; details: PTZ 50 μM alone
Description: as §1
During the experiment the slices were held and treated in a special Superfusion chamber (List Electronics, Darmstadt, Germany) at 35° C. according to Haas et al., 1979 (see also: Schiff and Somjen, 1985). Four slices were used from one rat per day under one of the test conditions (control or various concentrations of the S1 compound). The preparation was superfused with artificial cerebrospinal fluid (ACSF) at 180-230 ml/h. Electrical stimulation (200 μA constant current pulses of 200 μs pulse width) of the Schaffer Collaterals within the […] area and recording of extracellular field potentials from the pyramidal cell layer of CA1 (Dimpfel et al., 1991) as shown in FIG. 4 and FIG. 5 was performed according to conventional electrophysiological methods using the “Labteam” Computer system and “NeuroTool” software package (Medisyst GmbH, Linden, Germany). Measurements were performed at 10 min intervals to avoid potentiation mechanisms. Four stimulations—each 20 seconds apart—were averaged for each time point. […]

CN1CCc2cc3c(cc2[C@H]1[C@@H]1OC(=O)c2c1ccc1c2OCO1)OCO3 [Bicuculline]
population spike amplitude in % of ACSF value, Bicuculline 50 μM, mean (X) [1]: 256.6% and 248.7% and 237.6% and 249.6%

C1CCc2nnnn2CC1 [PTZ, 6,7,8,9-tetrahydro-5h-tetrazolo(1,5-a)azepine]
population spike amplitude in % of ACSF value, PTZ 50 μM, mean (X) ([2]; mean of 4 slices): 243.9% | population spike amplitude, PTZ 50 μM, mean (X) ([2]; mean of 4 slices): −2854.9 μV | population spike amplitude in % of ACSF value, PTZ 50 μM ([2]; single slices): 254.2% and 244.7% and 232.8% and 243.7%
